Experimental data published in PMC7038631 (Alzheimer's & dementia : the journal of the Alzheimer's …, 2019).
pKd: −log10 of the molar value. Entries after “also recorded” stand apart in the source; their conditions may differ.

What was measured:
[1] = target: tau preformed fibrils (PFF) (Homo sapiens, UniProt P10636); assay: ThT signal of tau preformed fibrils; format: biochemical; settings: DTT 5 mM
purified WT tau proteins = purified WT tau proteins (Homo sapiens, UniProt P10636); assay: Heparin induced thioflavin-T; format: biochemical
Sequence of purified WT tau proteins (P10636 1-441 isoform P10636-8): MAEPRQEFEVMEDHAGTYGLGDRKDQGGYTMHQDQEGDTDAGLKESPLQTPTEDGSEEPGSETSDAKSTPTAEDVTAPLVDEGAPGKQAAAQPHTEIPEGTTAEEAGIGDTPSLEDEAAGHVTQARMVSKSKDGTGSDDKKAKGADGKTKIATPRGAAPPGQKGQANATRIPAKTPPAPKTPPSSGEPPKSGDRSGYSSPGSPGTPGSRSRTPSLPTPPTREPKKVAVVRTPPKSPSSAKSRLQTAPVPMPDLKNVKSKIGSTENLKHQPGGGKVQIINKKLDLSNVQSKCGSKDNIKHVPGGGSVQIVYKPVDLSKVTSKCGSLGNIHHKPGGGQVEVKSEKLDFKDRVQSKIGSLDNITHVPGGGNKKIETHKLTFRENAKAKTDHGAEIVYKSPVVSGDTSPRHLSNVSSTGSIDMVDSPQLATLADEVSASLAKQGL

[2] = FRET control cells expressing free fluorophores; format: cell-based, human
WT 2N4R tau monomer = assay: Single-molecule FRET; format: biochemical; settings: 5 μM, vs buffer or DMSO
[3] = test system: untransfected SH-SY5Y cells; settings: MK-886 0.5, 1 or 2 μM
[4] = target: purified recombinant full-length 2N4R wild-type (WT) tau (Homo sapiens, UniProt P10636); assay: Surface plasmon resonance binding to immobilized WT tau; settings: read-out: Kd, binding to purified WT tau protein (SPR); steady-state, 25 °C, 1 nM to 5 μM
Sequence of purified recombinant full-length 2N4R wild-type (WT) tau (P10636 1-441 isoform P10636-8): as above

Sequence of tau preformed fibrils (PFF) (P10636 1-441 isoform P10636-8): as above

Row | SMILES | Effect on ThT signal from tau PFF [1] | Direct effect on ThT fluorescence (purified WT tau proteins) | Effect on lag phase of tau β-sheet fibril formation (ThT) (purified WT tau proteins; heparin 0.4 mg/ml, MK-886 0.5 and 5 μM) | Nucleation of tau fibril formation without heparin (ThT) (purified WT tau proteins; no heparin) | Action on cytosolic fluorophores (control FRET) [2] | smFRET change, N-terminal domain labeled tau construct (WT 2N4R tau monomer) | smFRET change, PRR/MTBR labeled tau construct (WT 2N4R tau monomer) | Rescue of cell cytotoxicity induced by UC-112 ([3]; UC-112 1 μM) | Rescue of cell cytotoxicity induced by YM-155 ([3]; YM-155 1 μM) | pKd [4]
1 | O=c1c(O)c(-c2ccc(O)c(O)c2)oc2c(O)c(O)cc(O)c12 [gossypetin] | significant decrease | – | – | – | – | – | – | – | – | –
2 | CC(C)c1ccc2c(c1)c(SC(C)(C)C)c(CC(C)(C)C(=O)O)n2Cc1ccc(Cl)cc1 [MK-886] | did not reduce | did not have a direct effect | reduces the lag phase; also recorded: shortens the lag phase | unable to nucleate tau fibrillization; also recorded: did not act to nucleate | not acting on the cytosolic fluorophores | minor decrease in FRET | substantial increase in FRET | did not rescue | did not rescue | 6.75
